# Test results published in patent publication US20240209005A1, “BICYCLIC HETEROARYL BORONATE DERIVATIVES AS ECTONUCLEOTIDE PYROPHOSPHATASE PHOSPHODIESTERASE 1 INHIBITORS” (RIBOSCIENCE LLC, priority 2021, published 2024).
# Counter-ions that a name gives are not always drawn.
# Biological target: T1, ENPP1 (Homo sapiens, UniProt P22413)
# T1 sequence (P22413 1-925): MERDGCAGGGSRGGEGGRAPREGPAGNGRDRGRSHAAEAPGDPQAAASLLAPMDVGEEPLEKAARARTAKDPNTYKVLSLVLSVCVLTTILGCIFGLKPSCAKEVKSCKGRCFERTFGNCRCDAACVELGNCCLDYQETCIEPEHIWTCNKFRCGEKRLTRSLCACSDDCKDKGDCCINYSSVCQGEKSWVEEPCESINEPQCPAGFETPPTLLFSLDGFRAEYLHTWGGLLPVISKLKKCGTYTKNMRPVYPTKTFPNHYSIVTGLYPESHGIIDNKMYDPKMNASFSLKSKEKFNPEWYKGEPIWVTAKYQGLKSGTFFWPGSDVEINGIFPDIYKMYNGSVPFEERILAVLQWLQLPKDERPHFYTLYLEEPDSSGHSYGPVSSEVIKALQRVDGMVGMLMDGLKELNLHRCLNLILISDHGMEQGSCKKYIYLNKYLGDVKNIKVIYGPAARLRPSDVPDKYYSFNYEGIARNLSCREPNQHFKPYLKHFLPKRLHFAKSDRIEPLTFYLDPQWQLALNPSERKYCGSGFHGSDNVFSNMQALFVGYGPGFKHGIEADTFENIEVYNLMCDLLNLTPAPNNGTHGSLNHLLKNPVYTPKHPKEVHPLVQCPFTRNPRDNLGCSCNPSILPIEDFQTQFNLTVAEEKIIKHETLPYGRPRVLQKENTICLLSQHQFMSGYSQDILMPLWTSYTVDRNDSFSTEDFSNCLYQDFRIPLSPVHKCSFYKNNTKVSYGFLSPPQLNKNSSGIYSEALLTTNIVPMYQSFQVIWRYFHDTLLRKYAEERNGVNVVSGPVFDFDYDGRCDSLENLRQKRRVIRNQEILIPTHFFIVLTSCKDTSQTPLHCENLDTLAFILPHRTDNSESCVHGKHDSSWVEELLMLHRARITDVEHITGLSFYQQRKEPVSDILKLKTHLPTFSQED
# Test: Measurement of pNP-TMP hydrolysis by ENPP1
# Assay type: biochemical
# Settings: purified ENPP1, pNP-TMP substrate 500 μM, KM 232 μM; Ki calculated from IC50 by Cheng-Prusoff
# Description: p-Nitrophenyl thymidine 5′-monophosphate (pNP-TMP) is a synthesized substrate for ENPP1. The ENPP1 enzyme activity assay with pNP-TMP substrate was conducted as follows:
# Incubation of ENPP1 with compounds was set at 25° C. for 10 min. […] For each compound dilution, wells with assay buffer (50 mM Tris-HCl, pH8.8, 250 mM NaCl, 0.1 mg/ml BSA, 1% DMSO) only but no ENPP1 were included as controls for subtraction of test compound derived absorbance at 405 nm.
# Absorbance at 405 nm was recorded immediately in kinetic mode by PerkinElmer 2300 Enspire multimode plate reader.
# For each inhibitor, the specific ENPP1 activity was calculated using the following equation: ENPP1 activity (pmol/min/g)=Adjusted Vmax (OD405 nm/min) X conversion factor (pmol/OD405 nm)/amount of enzyme (g)
# Adjusted Vmax=V0×(Km+(S))/(S).
# V0=(OD405 nm with ENPP1−OD405 nm ENPP1 blank)/minutes. OD405 nm was plotted, with blank subtracted, against time (minutes), the initial linear rate is V0. […]
# The slope is the conversion factor. The percent ENPP1 activity for each sample was calculated using the following equation:
# % enzyme activity=sample enzyme activity/MAX Activity×100%.
# To determine the IC50 for each compound, compound concentration values and percent enzyme activity values were inserted into GraphPad Prism (GraphPad Prism version 7.0 for Windows, GraphPad Software, La Jolla California USA, www.graphpad.com), and Prism's Transform analysis was used to convert the x-axis values (compound concentration) to logarithms. A sigmoidal variable slope nonlinear regression analysis was performed using the following equation: Y=Bottom+(Top−Bottom)/(1+10^((LogIC50−X)*HillSlope)).
row,Structure (SMILES),Ki [nM]
1,"Cn1ncc2nc(C=Cc3ccccc3)nc(NCc3ccc(B(O)O)cc3)c21 (mixture of isomers) [compound 34, 4-[([1-methyl-5-[2-phenylethenyl]pyrazolo[4,3-d]pyrimidin-7-yl]amino)-methyl]phenylboronic acid]",< 1000
2,"CC(=O)Nc1cn(C)c2c(NCc3ccc(B(O)O)cc3)ncnc12 [Cpd. 2, 4-[([7-acetamido-5-methylpyrrolo[3,2-d]pyrimidin-4-yl]-amino)methyl]phenylboronic acid]",< 1000
3,"OB(O)c1ccc(CNc2ncnc3cc[nH]c23)cc1 [Cpd. 4, 4-([5H-pyrrolo[3,2-d]pyrimidin-4-ylamino]methyl)phenyl-boronic acid]",< 10000
4,"CC(=O)Nc1csc2c(NCc3ccc(B(O)O)cc3)ncnc12 [Cpd. 8, 4-[([7-acetamidothieno[3,2-d]pyrimidin-4-yl]amino)-methyl]phenylboronic acid]",< 100
5,CNC(=O)c1n[nH]c2c(NCc3ccc(B(O)O)cc3)ncnc12 [Cpd. 22],> 10000
6,"Cn1ccc2ncnc(NCc3ccc(B(O)O)cc3)c21 [compound 1, 4-[([5-methylpyrrolo[3,2-d]pyrimidin-4-yl]amino)-methyl]phenylboronic acid; formic acid]",< 100
7,"CCC(=O)Nc1csc2c(NCc3ccc(B(O)O)cc3)ncnc12 [compound 3, 4-[([7-propanamidothieno[3,2-d]pyrimidin-4-yl]amino)-methyl]phenylboronic acid]",< 1000
8,"Cc1nc(NCc2ccc(B(O)O)cc2)c2c(cnn2C)n1 [compound 5, 4-[([1,5-dimethylpyrazolo[4,3-d]pyrimidin-7-yl]amino)-methyl]phenylboronic acid]",< 1000
9,"CC(C)c1nc(NCc2ccc(B(O)O)cc2)c2c(cnn2C)n1 [compound 6, 4-[([5-isopropyl-1-methylpyrazolo[4,3-d]pyrimidin-7-yl]-amino)methyl]phenylboronic acid]",< 100
10,"CC(=O)Nc1c[nH]c2c(NCc3ccc(B(O)O)cc3)ncnc12 [compound 7, 4-[([7-acetamido-5H-pyrrolo[3,2-d]pyrimidin-4-yl]amino)-methyl]phenylboronic acid]",< 1000
11,"OB(O)c1ccc(CNc2ncnc3cn[nH]c23)cc1 [compound 9, 4-([1H-pyrazolo[4,3-d]pyrimidin-7-ylamino]methyl)-phenylboronic acid]",< 100
12,"CCNC(=O)c1c[nH]c2c(NCc3ccc(B(O)O)cc3)ncnc12 [compound 10, 4-([[7-(ethylcarbamoyl)-5H-pyrrolo[3,2-d]pyrimidin-4-yl]-amino]methyl)phenylboronic acid; formic acid]",< 100
13,"CN(C)C(=O)c1c[nH]c2c(NCc3ccc(B(O)O)cc3)ncnc12 [compound 11, 4-([[7-(dimethylcarbamoyl)-5H-pyrrolo[3,2-d]pyrimidin-4-yl]-amino]methyl)phenylboronic acid]",< 1000
14,"CNC(=O)c1csc2c(NCc3ccc(B(O)O)cc3)ncnc12 [compound 12, 4-([[7-(methylcarbamoyl)thieno[3,2-d]pyrimidin-4-yl]-amino]methyl)phenylboronic acid]",< 100
15,"O=C(NCCO)c1c[nH]c2c(NCc3ccc(B(O)O)cc3)ncnc12 [compound 13, 4-[([7-[(2-hydroxyethyl)carbamoyl]-5H-pyrrolo[3,2-d]-pyrimidin-4-yl]amino)methyl]phenylboronic acid]",< 10000
16,"CC(C)NC(=O)c1c[nH]c2c(NCc3ccc(B(O)O)cc3)ncnc12 [compound 14, 4-([[7-(isopropylcarbamoyl)-5H-pyrrolo[3,2-d]pyrimidin-4-yl]amino]methyl)phenylboronic acid]",< 1000
17,"N#Cc1c[nH]c2c(NCc3ccc(B(O)O)cc3)ncnc12 [compound 15, 4-[([7-cyano-5H-pyrrolo[3,2-d]pyrimidin-4-yl]amino)methyl]phenylboronic acid]",< 100

row,Structure (SMILES),Ki [nM]
1,"NC(=O)c1c[nH]c2c(NCc3ccc(B(O)O)cc3)ncnc12 [compound 16, 4-[([7-carbamoyl-5H-pyrrolo[3,2-d]pyrimidin-4-yl]amino)-methyl]phenylboronic acid]",< 1000
2,"CNC(=O)c1c[nH]c2c(NCc3ccc(B(O)O)cc3)ncnc12 [compound 17, 4-([[7-(methylcarbamoyl)-5H-pyrrolo[3,2-d]pyrimidin-4-yl]amino]methyl)phenylboronic acid; formic acid]",< 100
3,"Cn1ncc2ncnc(NCc3ccc(B(O)O)cc3)c21 [compound 18, 4-[([1-methylpyrazolo[4,3-d]pyrimidin-7-yl]amino)methyl]-phenylboronic acid]",< 100
4,"Cn1cnc2ncnc(NCc3ccc(B(O)O)cc3)c21 [compound 19, 4-[[(7-methylpurin-6-yl)amino]methyl]phenylboronic acid]",< 100
5,"OB(O)c1ccc(CNc2ncnc3nc[nH]c23)cc1 [compound 20, 4-[(7H-purin-6-ylamino)methyl]phenylboronic acid]",< 10000
6,"CC(C)C(=O)Nc1csc2c(NCc3ccc(B(O)O)cc3)ncnc12 [compound 23, 4-([[7-(2-methylpropanamido)thieno[3,2-d]pyrimidin-4-yl]-amino]methyl)phenylboronic acid]",> 10000
7,"O=C(Nc1csc2c(NCc3ccc(B(O)O)cc3)ncnc12)c1ccccc1 [compound 24, 4-[([7-benzamidothieno[3,2-d]pyrimidin-4-yl]amino)-methyl]phenylboronic acid]",> 10000
8,"O=CNc1csc2c(NCc3ccc(B(O)O)cc3)ncnc12 [compound 25, 4-[([7-formamidothieno[3,2-d]pyrimidin-4-yl]amino)-methyl]phenylboronic acid]",< 100
9,"OB(O)c1ccc(CNc2ncnc3ccsc23)cc1 [compound 26, 4-([thieno[3,2-d]pyrimidin-4-ylamino]methyl)phenyl-boronic acid.]",< 100
10,"CC(C)c1nc(NCc2ccc(B(O)O)cc2)c2[nH]ncc2n1 [compound 27, 4-[([5-isopropyl-1H-pyrazolo[4,3-d]pyrimidin-7-yl]-amino)methyl]phenylboronic acid formic acid salt]",< 1000
11,"OB(O)c1ccc(CNc2nc(-c3ccccc3)nc3cn[nH]c23)cc1 [compound 28, 4-[([5-phenyl-1H-pyrazolo[4,3-d]pyrimidin-7-yl]amino)-methyl]phenylboronic acid]",< 1000
12,"Cn1ncc2nc(-c3ccccc3)nc(NCc3ccc(B(O)O)cc3)c21 [compound 29, 4-[([1-methyl-5-phenylpyrazolo[4,3-d]pyrimidin-7-yl]-amino)-methyl]phenylboronic acid]",< 1000
13,"Cn1ncc2nc(-c3ccccn3)nc(NCc3ccc(B(O)O)cc3)c21 [compound 30, 4-([[1-methyl-5-(pyridin-2-yl)pyrazolo[4,3-d]pyrimidin-7-yl]amino]-methyl)phenylboronic acid]",< 100
14,"Cn1ncc2nc(-c3cccnc3)nc(NCc3ccc(B(O)O)cc3)c21 [compound 31, 4-([[1-methyl-5-(pyridin-3-yl)pyrazolo[4,3-d]pyrimidin-7-yl]amino]methyl)-phenylboronic acid]",< 1000
15,"Cn1ncc2nc(-c3ccncc3)nc(NCc3ccc(B(O)O)cc3)c21 [compound 32, 4-([[1-methyl-5-(pyridin-4-yl)pyrazolo[4,3-d]pyrimidin-7-yl]amino]methyl)phenylboronic acid]",< 100
16,"Cn1ncc2nc(-c3cnccn3)nc(NCc3ccc(B(O)O)cc3)c21 [compound 33, 4-([[1-methyl-5-(pyrazin-2-yl)pyrazolo[4,3-d]pyrimidin-7-yl]amino]methyl)-phenylboronic acid]",< 100
